Experiments:
[1] = target: T1, yIre1 (recombinant yeast IRE1) (Saccharomyces cerevisiae, UniProt P32361); assay: in vitro RNase assay, radiolabeled HAC1 RNA cleavage; assay type: biochemical
T1 sequence (P32361 641-1115 limits assumed): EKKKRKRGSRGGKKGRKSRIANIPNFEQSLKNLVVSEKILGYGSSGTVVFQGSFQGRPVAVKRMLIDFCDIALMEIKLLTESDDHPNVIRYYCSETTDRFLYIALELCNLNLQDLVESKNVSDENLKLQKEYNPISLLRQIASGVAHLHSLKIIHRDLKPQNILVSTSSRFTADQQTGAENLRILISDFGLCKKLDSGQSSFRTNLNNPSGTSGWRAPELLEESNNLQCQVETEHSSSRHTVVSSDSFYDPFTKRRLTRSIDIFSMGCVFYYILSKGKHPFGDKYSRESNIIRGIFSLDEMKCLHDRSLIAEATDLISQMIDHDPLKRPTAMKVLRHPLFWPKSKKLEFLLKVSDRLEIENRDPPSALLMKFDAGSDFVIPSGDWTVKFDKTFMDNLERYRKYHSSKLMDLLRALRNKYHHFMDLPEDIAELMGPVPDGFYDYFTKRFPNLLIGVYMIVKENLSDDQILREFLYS

[2] = target: T1, yIre1 (recombinant yeast IRE1); assay: in vitro RNase assay, HAC1 and BLOS1 RNA cleavage; assay type: biochemical; details: activator, 100 μM, 1 μM yIre1; Q site at kinase/RNase interface

## O=S(=O)(N=Cc1c(O)ccc2ccccc12)c1cccs1 [STF-083010]
[1]
  IC50: ~30 µM

## O=c1c(O)c(-c2ccc(O)c(O)c2)oc2cc(O)cc(O)c12 [quercetin]
[2]
  in vitro RNase assay, HAC1 and BLOS1 RNA cleavage (activation): binding of Q to Ire1 was sufficient to promote cleavage of RIDD substrate RNA

From publication PMC4486022 (Cell reports, 2014)
